The text below walks through data of patent publication US11649326B2, “Functional, segregated, charged telodendrimers and nanocarriers and methods of making and using same” (The Research Foundation for the State University of New York, priority 2015, dated 2023).

The test system of this test is HT-29 cells. The test is described as follows: Cellular uptake of FITC-BSA by CLSM in HT-29 cells. In kind it is cell-based. Conditions: 37° C., 3 h, P/T ratio 1/3 by weight. The protocol: Cellular Uptake of Protein-Loaded Telodendrimer Nanoparticles. Green fluorescent FITC-BSA molecules were used to probe the intracellular trafficking of proteins without and with telodendrimer nanoparticles. HT-29 colon cancer cells were incubated with free FITC-BSA and FITC-BSA-loaded telodendrimer nanoparticles, and were imaged by confocal laser scanning microscopy (CLSM). […] Only a small amount of the FITC-BSA molecules loaded in the nanoparticles of the telodendrimers containing four guanidine groups at a P/T ratio of 1/3 by weight could be delivered to the cellular interiors (green fluorescence in FIG. 6b). […] The poor intracellular protein delivery efficiency of the telodendrimers containing four guanidine groups may restrict their applications for intracellular delivery, however, this endows them with the potential to serve as nanocarriers for systemic delivery of proteins such as insulin. […]
Cellular Uptake. The cellular uptake and intracellular trafficking of the protein-incorporated nanoparticles were determined by fluorescence microscopy. […] The slides were mounted with cover slips and cells were imaged with a […] FV1000 laser scanning confocal fluorescence microscope.

As to “FITC-BSA: Fluorescein isothiocyanate (FITC) labeled bovine serum albumin, fluorescent model protein”, the “cellular uptake of FITC-BSA” value is “could hardly enter the cells spontaneously”.
